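Following 48 hours of exposure in 96-well plates, responses at five concentrations were used to interpolate endpoints linearly. Abbreviation: GI50, concentration required for 50% inhibition of growth.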 Activity calls are given as the source filed them. No stated cut-off is given here; in the data, active = GI50 up to about 1.1 µM and inactive = higher.
How the values were obtained:
Test in all cases: DTP human tumour cell line panel, 48 h
786-0 = tested on: 786-0
A498 = tested on: A498
A549 = tested on: A549
ACHN = tested on: ACHN
BT-549 = tested on: BT-549
CAKI-1 = tested on: CAKI-1
CCRF-CEM = tested on: CCRF-CEM
COLO 205 = tested on: COLO 205
DU-145 = tested on: DU-145
EKVX = tested on: EKVX
HCC 2998 = tested on: HCC 2998
HCT-116 = tested on: HCT-116
HCT-15 = tested on: HCT-15
HL-60 = tested on: HL-60
HOP-62 = tested on: HOP-62
HOP-92 = tested on: HOP-92
HT-29 = tested on: HT-29
Hs-578T = tested on: Hs-578T
IGROV-1 = tested on: IGROV-1
K562 = tested on: K562
KM12 = tested on: KM12
LOX IMVI = tested on: LOX IMVI
M14 = tested on: M14
MCF7 = tested on: MCF7
MDA-MB-231 = tested on: MDA-MB-231
MDA-MB-435 = tested on: MDA-MB-435
MDA-N = tested on: MDA-N
MOLT-4 = tested on: MOLT-4
Malme-3M = tested on: Malme-3M
NCI-H226 = tested on: NCI-H226
NCI-H23 = tested on: NCI-H23
NCI-H460 = tested on: NCI-H460
NCI-H522 = tested on: NCI-H522
NCI/ADR-RES = tested on: NCI/ADR-RES
OVCAR-3 = tested on: OVCAR-3
OVCAR-4 = tested on: OVCAR-4
OVCAR-5 = tested on: OVCAR-5
OVCAR-8 = tested on: OVCAR-8
PC-3 = tested on: PC-3
SF-268 = tested on: SF-268
SF-295 = tested on: SF-295
SF-539 = tested on: SF-539
SK-MEL-28 = tested on: SK-MEL-28
SK-MEL-5 = tested on: SK-MEL-5
SK-OV-3 = tested on: SK-OV-3
SN12C = tested on: SN12C
SNB-19 = tested on: SNB-19
SNB-75 = tested on: SNB-75
SW-620 = tested on: SW-620
TK-10 = tested on: TK-10
U-251 = tested on: U-251
UACC-257 = tested on: UACC-257
UACC-62 = tested on: UACC-62
UO-31 = tested on: UO-31
RPMI-8226 = tested on: RPMI-8226
RXF 393 = tested on: RXF 393
SK-MEL-2 = tested on: SK-MEL-2
SR = tested on: SR

Measured: GI50

Cc1cc2c(cc1Cl)Sc1n[nH]c(=O)n1S2(=O)=O
inactive: 786-0 > 100 µM | A498 19.4 µM | A549 > 100 µM | ACHN > 100 µM | BT-549 > 100 µM | CAKI-1 > 100 µM | CCRF-CEM > 100 µM | COLO 205 > 100 µM | DU-145 > 100 µM | EKVX > 100 µM | HCC 2998 > 100 µM | HCT-116 > 100 µM | HL-60 > 100 µM | HOP-62 > 100 µM | HOP-92 54.3 µM | HT-29 > 100 µM | Hs-578T > 100 µM | IGROV-1 > 100 µM | K562 > 100 µM | KM12 > 100 µM | LOX IMVI > 100 µM | M14 > 100 µM | MCF7 > 100 µM | MDA-MB-231 > 100 µM | MDA-MB-435 > 100 µM | MDA-N > 100 µM | MOLT-4 > 100 µM | Malme-3M 40.6 µM | NCI-H226 > 100 µM | NCI-H23 > 100 µM | NCI-H460 > 100 µM | NCI-H522 87.5 µM | NCI/ADR-RES > 100 µM | OVCAR-3 95.5 µM | OVCAR-4 > 100 µM | OVCAR-5 > 100 µM | OVCAR-8 > 100 µM | PC-3 > 100 µM | SF-268 > 100 µM | SF-295 > 100 µM | SF-539 > 100 µM | SK-MEL-28 > 100 µM | SK-MEL-5 35.8 µM | SK-OV-3 > 100 µM | SN12C > 100 µM | SNB-19 > 100 µM | SNB-75 > 100 µM | SW-620 > 100 µM | TK-10 > 100 µM | U-251 > 100 µM | UACC-257 > 100 µM | UACC-62 > 100 µM | UO-31 > 100 µM
> 100 µM: HCT-15

CNc1nc(N)nc(Nc2ccc(I)cc2)c1N=O
> 100 µM: HCT-15
inactive: 786-0 > 100 µM | A549 > 100 µM | ACHN > 100 µM | BT-549 > 100 µM | CCRF-CEM > 100 µM | COLO 205 36.4 µM | DU-145 > 100 µM | EKVX > 100 µM | HCC 2998 > 100 µM | HCT-116 > 100 µM | HL-60 62.4 µM | HOP-62 > 100 µM | HT-29 24 µM | Hs-578T 39.1 µM | IGROV-1 > 100 µM | K562 68.2 µM | KM12 > 100 µM | LOX IMVI > 100 µM | MCF7 > 100 µM | MDA-MB-231 > 100 µM | MDA-MB-435 > 100 µM | MDA-N > 100 µM | MOLT-4 78.5 µM | Malme-3M > 100 µM | NCI-H23 > 100 µM | NCI-H460 > 100 µM | NCI-H522 40 µM | NCI/ADR-RES > 100 µM | OVCAR-3 61 µM | OVCAR-5 > 100 µM | OVCAR-8 > 100 µM | PC-3 > 100 µM | RPMI-8226 > 100 µM | RXF 393 57.4 µM | SF-268 > 100 µM | SF-295 > 100 µM | SF-539 > 100 µM | SK-MEL-28 > 100 µM | SK-MEL-2 > 100 µM | SK-MEL-5 96.2 µM | SN12C > 100 µM | SNB-19 > 100 µM | SNB-75 > 100 µM | SR > 100 µM | SW-620 > 100 µM | TK-10 > 100 µM | UACC-257 85.3 µM | UACC-62 48 µM | UO-31 27 µM

— ChEMBL document CHEMBL1201862, “PubChem BioAssay data set” (2004)
